# How the values were obtained:
# [1] = test system: healthy mouse; test: cytokine profile and routes of administration in healthy mouse; assay type: in vivo; settings: for VEGF (versus controls): p=0.001
# Protocol: This example provides results of a study to evaluate the effect of denatonium acetate on a healthy mouse as measured by cytokine profile and routes of administration of DA. The study groups were: (1) Vehicle group, N=12, treated with distilled water, gavage, BID; (2) DA oral low dose group, N=12, treated with DA at a dose of 23.1 mg/kg (salt weight), gavage, BID; (3) DA oral high dose group, N=12, treated with DA at a dose of 92.4 mg/kg (salt weight), gavage, BID; (4) DA IV low dose group, N=12, treated with DA at a dose of 1 mg/kg (salt weight), iv bolus, QD; (5) DA IV high dose group, N=12, treated with ARD-101 at a dose of 3 mg/kg (salt weight), iv bolus, QD.
# [2] = test system: microbial populations in fecal samples; test: microbiome study in NASH mouse model (AMLN diet), 4 weeks; assay type: in vivo
# Source text: There were changes in the microbiome in a mice model using a high-fat diet after 4 weeks of treatment with and without administering DA orally. The high fat diet itself induced extensive changes in the microbial populations in all groups. Importantly though, there was a pronounced difference between the DA treatment group and the control group at week 4.
# The effect of a small molecule oral TAS2R agonist (DA) was investigated on microbial populations in a nonalcoholic steatohepatitis (NASH) mouse model. Two groups of 4-week-old male C57BL/6 mice (20/group) were fed Amylin Liver NASH (AMLN) diet and received daily doses of ARD-101 (30 mg/mL in water) or vehicle (water) via intragastric gavage. DNA was isolated from fecal samples collected at week 0 and 4, and microbial ecology was evaluated using bTEFAP (bacterial tag-encoded FLX amplicon pyrosequencing). Operational taxonomic units were classified using BLAST against a curated NCBI database. Diversity within specific ecosystems and microbial community structures was analyzed with Qiime 2. Differences were determined by repeated measures ANOVA and post hoc pairwise comparisons using Tukey's test. Taxonomic classification data were evaluated with a dual hierarchal dendrogram.
# [3] = test system: DSS-induced colitis in mice; test: dextran sulfate sodium (DSS)-induced colitis in mice; assay type: in vivo, mouse
# Source text: This example provides the results of an in vivo study in a dextran sulfate sodium (DSS)-induced colitis in mice model. Inflammatory bowel diseases (IBD), mainly comprising ulcerative colitis and Crohn's Disease, are complex and multifactorial diseases with unknown etiology. To study human IBD mechanistically, a number of murine models of colitis have been developed. These models are tools to decipher underlying mechanisms of IBD pathogenesis as well as to evaluate potential therapeutics. […] Moreover, many existing IBD-approved drugs have been studied in this model to allow a comparison of new potential drug compounds as compared with existing drugs with approved IBD indications. […] mice were divided into 5 groups of 3-10 mice, provided with standard mouse chow diet ad libitum, and housed up to 5 per cage. Dexamethasone 21-phosphate disodium salt (DMS; Alfa Aesar Catalog #J64083-1G, Lot R02F035) (was used as a positive control. Hemoccult kits were obtained from Beckman (Hemoccult SENSA kit). Dextran sodium sulfate (DSS) reagent grade (MPI Catalog #160110, Lot #6046H, MW 36,000-50,000, CAS 9011-18-1) was supplemented in the water of certain groups to induced IBD-like symptoms. On day −3 treatment began prior to DSS delivery. On day 1 all mice were pre-weighed and given fresh 4-5% DSS in water every day for 5 days and water is then given for the remainder of the study to elicit disease. An additional control group was given water (no DSS) for the duration of the study (10 days). Body weight was measured daily, fecal blood status (hemoccult) was measured 3X per week, fecal consistency 3× per week and general health determined daily. Mice were sacrificed on day 10 and serum obtained for cytokine analysis and colon length and weight determined. There were two control groups of water only and DSS without drug treatment. There were two treatment groups at 69.3 mg/kg (n=10) bid and 23.1 mg/kg bid (n=10).
# [4] = 4-week DA treatment, genetic potential of microbiome
# [5] = treatment at 4 weeks versus baseline and control
# [6] = week 4, DA group versus vehicle group, AMLN diet
# [7] = high-dose of DA, no significant difference observed
smiles,measurement,setting,value
"CC(=O)[O-].CC[N+](CC)(CC(=O)Nc1c(C)cccc1C)Cc1ccccc1 [DA, denatonium acetate]",biomarker (cytokine) effects,[1]; either iv DA dose (1 or 3 mg/kg iv bolus QD),no biomarker (cytokine) effects
same,VEGF (versus controls),[1]; higher dose oral DA 92.4 mg/kg BID,significant decreases
same,IL-9 (versus controls),"[1]; higher dose oral DA 92.4 mg/kg BID, p=0.003",significant decreases
same,GM-CSF (versus controls),"[1]; higher dose oral DA 92.4 mg/kg BID, p=0.03",significant decreases
same,KC (versus controls),"[1]; higher dose oral DA 92.4 mg/kg BID, p=0.05",significant decreases
same,side effects,[1]; iv administration only,toxic side effects
same,VEGF (versus controls),[1]; lower dose oral DA 23.1 mg/kg BID,significant decreases
same,G-CSF (versus controls),"[1]; lower dose oral DA 23.1 mg/kg BID, p=0.003",significant decreases
same,MCP-1 (versus controls),"[1]; lower dose oral DA 23.1 mg/kg BID, p=0.005",significant decreases
same,MIP-2 (versus controls),"[1]; lower dose oral DA 23.1 mg/kg BID, p=0.015",significant decreases
same,IL-13 (versus controls),"[1]; lower dose oral DA 23.1 mg/kg BID, p=0.03",significant decreases
same,IL-1α (versus controls),"[1]; lower dose oral DA 23.1 mg/kg BID, p=0.04",significant decreases
same,arginine and ornithine metabolism,[2]; [4],significantly decreased signaling
same,pathways for biosynthesis of unsaturated fatty acids,[2]; [4],significant enrichment
same,pathways for glycolysis and gluconeogenesis,[2]; [4],significant enrichment
same,pathways for lysine degradation,[2]; [4],significant enrichment
same,pathways for metabolism of arachidonic acid,[2]; [4],significant enrichment
same,pathways for metabolism of cofactors and vitamins,[2]; [4],significant enrichment
same,phosphatidylinositol signaling,[2]; [4],significant enrichment
same,SCFAs in feces,"[2]; AMLN diet, DA treatment",mitigated the diet-induced decrease
same,diversity within ecosystems and microbial communities,"[2]; DA versus vehicle group at week 4, p<0.05",significantly less diversity
same,"genus: Lachnoclostridium, Barnesiella, Clostridium, Oscillospira, Dorea, candidatus soleaferrea, Dehalobacterium, Oscillibacter, Flavonifractor",[2]; [5],Significantly Decreased
same,"genus: Parabacteroides, Escherichia, Erysipelatoclostridium, Peptoclostridium, Sutterella, Shigella, Brenneria",[2]; [5],Significantly Increased
same,Cyanobacteria (phylum level),[2]; [6],significant increases
same,Deferribacteres (phylum level),[2]; [6],significant decreases
same,Firmicutes (phylum level),[2]; [6],significant decreases
same,Proteobacteria (phylum level),[2]; [6],significant increases
same,Spirochetes (phylum level),[2]; [6],significant decreases
same,Verrucomicrobia (phylum level),[2]; [6],significant increases
same,Bacteroidetes (phylum level),"[2]; week 4, not marked significant",decreased
same,body weight at day 10,"[3]; 69.3 mg/kg DA, BID, vs vehicle",significant effect against DSS-induced body weight loss
same,combined fecal score during the study period,[3]; DA 23.1 and 69.3 mg/kg bid,significant main effect
same,fecal consistency score during the study period,[3]; DA 23.1 and 69.3 mg/kg bid,significant main effect
same,fecal occult blood scores during the study period,[3]; DA 23.1 and 69.3 mg/kg bid,significant main effect
same,body weight changes during the study period,"[3]; DA 23.1 and 69.3 mg/kg bid, P=0.0052",significant main effect
same,colon length at day 10,[3]; [7],could counteract DSS-induced decrease
same,colon weight at day 10,[3]; [7],could counteract DSS-induced decrease
same,spleen weight at day 10,"[3]; high-dose of DA, no significant effect observed",trend to counteract DSS-induced spleen weight loss
